The subject of series [1] is HOC (human parental ovarian adenocarcinoma, A2780). The series can be described thus: Cytotoxic activity, 2D, resazurin, 72 h. The series is classed as cell-based. The following applies: for IC50: Homo sapiens, A2780, 72 h, read-out: HOC IC50; for SI HEK293/HOC: IC50 HEK293 / IC50 HOC. How it is done:
(§1) The cytotoxic potential of selenoesters was tested on several cancer cell lines—HOC (human parental ovarian adenocarcinoma, HOC, A2780, Sigma-Aldrich), HOC/ADR (sub-line resistant to Adriamycin, A2780/ADR, Sigma-Aldrich), MCF-7 (human breast adenocarcinoma, ATCC®, HTB-22TM), MCF-7/PAX (resistant sub-line established by gradual adaptation of parental cells to increased concentration of paclitaxel; kindly provided by Division of Cell and Molecular Biology, Third Faculty of Medicine, Charles University, Czech Republic) and on one non-cancerous cell line—HEK293 (human embryonic kidney cell line, Leibniz Institute, DSMZ-German Collection of Microorganisms and Cell Cultures GmbH). All mentioned cell lines were authenticated using short tandem repeat (STR) profiling. Cell lines were cultivated in DMEM medium (10% FBS, 1× antibiotic antimycotic solution), except for HEK293 cell line which was cultivated without antibiotics. In case of the resistant cell lines, the medium was supplemented with a required concentration of cytostatics to maintain resistance (HOC/ADR—100 nM Adriamycin; MCF-7/PAX—300 nM paclitaxel). All cells were cultivated in a CO2 incubator (5% CO2, 37 °C, Thermo Fisher Scientific).
(§2) For the experiment, the cells at passage number 5–20 were seeded at a 1 × 10^5 cells/mL concentration into 96-well plates to 100 µL final volume. The final concentration range of the compounds was 0.63–20 µM. After an incubation of 72 h, the plates were washed 1× with PBS and resazurin solution (0.03 mg/mL in 1× PBS) was added. After 1 h of incubation, the fluorescence signal was recorded (ex./em. 560/590 nm).
(§3) The selectivity index (SI) was determined as the ratio of IC50 value for the non-cancerous cells to IC50 for the cancer cell line. For resistant cell lines, the collateral sensitivity (CS) was calculated as the ratio of IC50 value in sensitive tumour cells to IC50 in the resistant cancer cell line. In both cases, the selectivity is considered as: (1) strongly selective when SI or CS value is above 6, (2) moderately selective when SI or CS is between 3 and 6, (3) slightly selective when SI or CS is between 1 and 3 and (4) non-selective when SI or CS is less than 1[23].
On the technique in general: Resazurin is reduced to fluorescent resorufin, in cell work by metabolically active cells.

For series [2], the system named is MCF-7 (human breast adenocarcinoma). The series can be described thus: Cytotoxic activity, 2D, resazurin, 72 h. The class given is cell-based. The conditions noted are these: for IC50: Homo sapiens, MCF7, 72 h, read-out: MCF-7 IC50; for SI HEK293/MCF-7: IC50 HEK293 / IC50 MCF-7. Here is the method: as §1, §2, §3
In series [3] the test system is HEK293 (human embryonic kidney cell line). The series can be described thus: Cytotoxic activity, non-cancerous cell line, resazurin, 72 h. The series is classed as cell-based. The conditions noted are these: for IC50: Homo sapiens, HEK293, 72 h, mean ± SEM, n=3. Here is the method:
as §1, §2, §3

The subject of another series is HOC. In words: Oxidation stress (ROS), Muse Oxidative Stress Kit. The class given is cell-based, human. The following applies: 1 µM (DMSO 5% V/V), 24 h. Here is the method: Selenoesters (K3, K4, K7) were tested for their ability to generate reactive oxygen species (ROS). HOC was exposed to selenoesters in concentration of 1 µM for 24 h. DMSO (5% V/V) was used as a positive control. The required volume of DMSO (1% V/V) was added to untreated cells. ROS are essential biomolecules in cellular regulation as a part of the defence mechanisms. On the other hand, their participation in cell signalling may affect apoptosis and other death pathways. In the assay, dihydroethidium (DHE) reacts with superoxide anions by forming DNA-binding fluorophore ethidium bromide. Based on fluorescence, the cell population can be distinguished into ROS negative and ROS positive cells containing oxygen radicals.
To determine the oxidation stress potential of selected selenoesters, HOC were seeded into 24-well plates at a density 2 × 10^5 cells/mL for 24 h according to the above mentioned procedure. Afterwards, the plates were washed 1 ×with PBS and fresh DMEM medium containing compounds K3, K4, K7 (final concentration—1 µM) was added for 24 h, except for the positive and negative control. […] as the oxidation stress inductor. After incubation, the cells were washed 1× with PBS and released from the surface by using a trypsin–EDTA solution. After trypsin inhibition by medium addition, the cell suspensions were centrifuged (100×g, 5 min, 25 °C), supernatants were removed, and cell pellets resuspended in 1× assay buffer. All reagents were prepared immediately before use. Afterwards, 10 µL of the cell suspension were mixed with 190 µL of working solution (Muse Oxidative stress reagent) and stained for 30 min at 37 °C. Subsequently, the […] were analysed by Guava Muse Cell Analyzer. Oxidation stress detection was performed following the instructions provided by the manufacturer.

The target of series [4] is T1, human recombinant P-gp membrane fraction (Homo sapiens, UniProt P08183).
T1 construct: purchased Promega
T1 sequence (P08183 whole entry): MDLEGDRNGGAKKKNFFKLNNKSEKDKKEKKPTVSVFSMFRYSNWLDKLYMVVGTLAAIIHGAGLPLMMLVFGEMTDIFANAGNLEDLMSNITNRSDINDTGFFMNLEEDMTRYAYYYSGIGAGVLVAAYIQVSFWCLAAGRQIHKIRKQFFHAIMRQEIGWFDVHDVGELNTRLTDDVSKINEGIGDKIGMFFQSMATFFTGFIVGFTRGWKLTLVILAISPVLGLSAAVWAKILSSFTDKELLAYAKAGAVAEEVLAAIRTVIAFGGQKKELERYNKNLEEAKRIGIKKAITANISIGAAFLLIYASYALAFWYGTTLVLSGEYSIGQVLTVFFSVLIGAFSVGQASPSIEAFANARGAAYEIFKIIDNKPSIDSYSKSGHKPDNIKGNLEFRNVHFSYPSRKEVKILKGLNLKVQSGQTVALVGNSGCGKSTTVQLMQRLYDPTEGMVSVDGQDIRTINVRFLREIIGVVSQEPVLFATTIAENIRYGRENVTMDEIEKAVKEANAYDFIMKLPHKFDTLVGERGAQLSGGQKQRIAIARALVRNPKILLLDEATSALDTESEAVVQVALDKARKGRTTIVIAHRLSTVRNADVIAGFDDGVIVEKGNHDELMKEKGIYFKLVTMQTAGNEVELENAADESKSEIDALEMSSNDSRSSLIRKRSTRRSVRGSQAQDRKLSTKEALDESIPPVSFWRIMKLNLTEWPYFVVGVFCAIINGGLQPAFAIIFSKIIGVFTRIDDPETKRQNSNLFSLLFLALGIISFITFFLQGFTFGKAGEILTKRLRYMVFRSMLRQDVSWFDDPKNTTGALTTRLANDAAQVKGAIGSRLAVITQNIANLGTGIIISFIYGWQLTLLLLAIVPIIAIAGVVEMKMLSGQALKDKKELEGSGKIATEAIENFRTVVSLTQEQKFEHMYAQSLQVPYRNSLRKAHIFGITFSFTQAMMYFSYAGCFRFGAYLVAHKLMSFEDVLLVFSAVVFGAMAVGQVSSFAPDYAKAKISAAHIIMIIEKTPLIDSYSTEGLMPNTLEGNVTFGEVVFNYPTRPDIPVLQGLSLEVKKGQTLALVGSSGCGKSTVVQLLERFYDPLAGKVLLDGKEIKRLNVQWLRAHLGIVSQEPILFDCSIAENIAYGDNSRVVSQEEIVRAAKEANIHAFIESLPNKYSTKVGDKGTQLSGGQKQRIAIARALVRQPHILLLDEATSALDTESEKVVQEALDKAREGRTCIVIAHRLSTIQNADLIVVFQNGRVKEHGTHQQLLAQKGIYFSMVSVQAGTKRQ
The series can be described thus: P-gp-Glo assay, verapamil-stimulated P-gp ATPase activity. The class given is biochemical. The following applies: for IC50: read-out: IC50, verapamil-stimulated P-glycoprotein ATPase activity; for mechanism of P-gp inhibition: with and without verapamil. Here is the method:
P-gp Glo™ Assay System represents a bioluminescent assay for the detection of P-gp ATPase activity. […] The activity of P-gp is inversely proportional to the luciferase-generated luminescent signal of unmetabolized ATP. For the detection of P-gp inhibitory potential, the compounds (concentration range 12.5–100 µM) were tested for their capacity to inhibit verapamil-stimulated P-gp ATPase activity in a competitive mode.
Using ATP standard curve and linear regression, the average amount of ATP consumed in presence of each compound was calculated. Afterwards, the specific P-gp activity (consumed ATP) was plotted versus the concentrations of the test compound and IC50 values were determined (Table 6). By using one-way ANOVA analysis, the statistical differences between compounds were identified; the compounds with the most statistically significant inhibition capacity was K3, followed by K4 and K7.
The modulation of P-glycoprotein ATPase activity was performed according to the manufacturer’s guidelines[54] and previously published work[55]. […] The reduction of verapamil-stimulated ATPase activity by selenoesters can indicate them as P-gp ATPase inhibitors. The reaction was initiated with 10 µL of MgATP (5 mM) addition to the final 50 µL volume. After 1 h incubation at 37 °C, the ATPase reaction was stopped with 50 µL of ATP detection reagent and subsequently the plate was incubated for 20 min at room temperature. Thanks to the luciferase reaction, it was possible to detect the remaining non-metabolized ATP as the luminescent signal. By using ATP standards and linear regression, the relative luminescent values (RLU) were converted to ATP concentration per reaction; and the amount of consumed ATP by the compounds was calculated.

Broadly, the IC50 is the midpoint of a concentration-inhibition curve. On to `CC(=O)C[Se]C(=O)c1ccc(Br)cc1` [K3], for which, in series [1], the IC50 was 1800 nM and the “SI HEK293/HOC” value is 1.3 ± 0.0. Moreover, in series [2], the IC50 is 2000 ± 500 nM and the “SI HEK293/MCF-7” value was determined as 1.2 ± 0.3. This compound also came in with an IC50 in series [3] of 2400 nM. Besides, in the series on HOC, the “ROS(+) cells” value is on record as 29.1 ± 4.2 % and the “ROS(−) cells” value is 70.8 ± 4.2 %. In addition, the “inhibition of verapamil-stimulated P-gp ATPase activity (luminescent signal)” value in series [4] (K3 50 µM versus Na3VO4 100 µM) was “more effectively inhibited than sodium orthovanadate”. For the same compound, in series [4], the IC50 is 11700 ± 1000 nM and the “mechanism of P-gp inhibition” value is given as “competitively inhibits efflux of another substrate”.

For the compound `CC(=O)C[Se]C(=O)c1ccccc1C(F)(F)F` [K4], the half-maximal inhibitory concentration (IC50) in series [1] was 2200 ± 100 nM; in series [2], 1800 ± 100 nM; in series [3], 5400 ± 400 nM; in series [4], 23000 ± 200 nM. The “SI HEK293/HOC” value in series [1] came out at 2.5 ± 0.2. Moreover, the “SI HEK293/MCF-7” value in series [2] is recorded as 2.9 ± 0.3. Also, the “selectivity indexes between HEK293 and cancer cell lines” value in series [3] (all cancer cell lines tested) was “highest selectivity”. The “ROS(+) cells” value with HOC is 14.5 ± 1.5 %. Besides, the “ROS(−) cells” value in the series with HOC came to 85.5 ± 1.6 %.

Regarding `CC(=O)C[Se]C(=O)c1ccc(C(C)(C)C)cc1` [K7], in series [1], the IC50 came to 1100 ± 100 nM and the “SI HEK293/HOC” value is given as 1.7 ± 0.2. For the same compound, in series [2], the half-inhibitory concentration (IC50) came to 1900 ± 100 nM and the “SI HEK293/MCF-7” value is 0.8 ± 0.1. In series [3], this compound gave a concentration for half-maximal inhibition (IC50) of 1500 ± 100 nM. Also, in the series on HOC, the “ROS(+) cells” value came out at 22.3 ± 0.4 % and the “ROS(−) cells” value was 77.7 ± 0.4 %. In series [4], the IC50 was 25700 ± 600 nM and the “mechanism of P-gp inhibition” value is “non-competitive P-gp inhibitor”.

Values taken from article PMC9023544, “Ketone-selenoesters as potential anticancer and multidrug resistance modulation agents in 2D and 3D ovarian and breast cancer in vitro models” (Scientific Reports, 2022).
